Laboratory results taken from US6696451B1 (dated 2004).

melting point	SMILES
142 to 143 °C	COC(=O)C1=C(C)NC(c2ncccc2F)=NC1c1ccc([N+](=O)[O-])cc1 (stereo not drawn)
103 to 104 °C	COC(=O)C1=C(C)NC(c2ncccc2Cl)=NC1c1ccc(Br)cc1F (stereo not drawn)
156 to 158 °C	CCOC(=O)C1=C(C)NC(c2ncccc2F)=NC1c1ccc(Br)cc1F (stereo not drawn)
143 to 144 °C	COC(=O)C1=C(C)NC(c2ncccc2F)=NC1c1ccccc1Br (stereo not drawn)
156 to 157 °C	COC(=O)C1=C(C)NC(c2ncccc2F)=NC1c1ccc(Br)cc1 (stereo not drawn)
131 °C	COC(=O)C1=C(C)NC(c2ccc(F)cn2)=NC1c1ccc(F)cc1Cl (stereo not drawn)
184 to 186 °C	CCOC(=O)C1=C(C)NC(c2ncccc2F)=NC1c1ccc(Cl)cc1[N+](=O)[O-] (stereo not drawn)
162 to 163 °C	CCOC(=O)C1=C(C)NC(c2ncccc2F)=NC1c1ccc(Cl)cc1F (stereo not drawn)
247 to 248 °C	CCOC(=O)C1=C(C)NC(c2ncccc2F)=NC1c1ccc(O)cc1Cl (stereo not drawn)
132 to 133 °C	CC(=O)C1=C(C)NC(c2ncccc2F)=NC1c1ccccc1Cl (stereo not drawn)
148 to 149 °C	CCOC(=O)C1=C(C)NC(c2ncccc2F)=NC1c1c(Cl)cccc1Cl (stereo not drawn)
134 to 135 °C	CCOC(=O)C1=C(C)NC(c2ncccc2F)=NC1c1ccc(Br)cc1 (stereo not drawn)
133 to 134 °C	CCOC(=O)C1=C(C)NC(c2ncccc2F)=NC1c1cc(Cl)cc(Cl)c1 (stereo not drawn)
110 to 111 °C	COC(=O)C1=C(C)NC(c2ncccc2F)=NC1c1ccccc1 (stereo not drawn)
145 to 146 °C	CCOC(=O)C1=C(C)NC(c2ncccc2F)=NC1c1ccc(I)cc1 (stereo not drawn)
180 to 182 °C	COC(=O)C1=C(C)NC(c2ncccc2F)=NC1c1c(Cl)cccc1Cl (stereo not drawn)
123 to 125 °C	CC1=C(C(=O)OCCOc2ccccc2)C(c2ccccc2Cl)N=C(c2ncccc2F)N1 (stereo not drawn)
124 °C	CCOC(=O)C1=C(C)NC(c2ccc(F)cn2)=NC1c1ccc(F)cc1Cl (stereo not drawn)
144 to 146 °C	COC(=O)C1=C(C)NC(c2ncccc2Cl)=NC1c1ccccc1Cl (stereo not drawn)
135 to 137 °C	COC(=O)C1=C(C)NC(c2ncccc2F)=NC1c1ccc(Cl)c([N+](=O)[O-])c1 (stereo not drawn)
142 to 143 °C	COC(=O)C1=C(C)NC(c2cccc(C)n2)=NC1c1ccccc1Cl (stereo not drawn)
163 to 164 °C	CCOC(=O)C1=C(C)NC(c2ncccc2F)=NC1c1ccccc1I (stereo not drawn)
120 to 122 °C	COC(=O)C1=C(C2CC2)NC(c2ncccc2F)=NC1c1ccccc1Cl (stereo not drawn)

melting point	SMILES
138 to 140 °C	CCOC(=O)C1=C(C)NC(c2ncccc2Cl)=NC1c1ccccc1Cl (stereo not drawn)
137 to 138 °C	CCOC(=O)C1=C(C)NC(c2ncccc2Cl)=NC1c1ccccc1Br (stereo not drawn)
141 °C	CCOC(=O)C1=C(C)NC(c2ccc(OC)cn2)=NC1c1ccc(F)cc1Cl (stereo not drawn)
140 to 142 °C	CCOC(=O)C1=C(C)NC(c2ncccc2F)=NC1c1c(F)cccc1F (stereo not drawn)
129 to 130 °C	CCOC(=O)C1=C(C)NC(c2ncccc2F)=NC1c1ccc(F)cc1 (stereo not drawn)
121 to 123 °C	COC(=O)C1=C(C)NC(c2ccc(C(F)(F)F)cn2)=NC1c1ccccc1Cl (stereo not drawn)
120 to 122 °C	COC(=O)C1=C(C)NC(c2ncccc2F)=NC1c1ccc(Cl)cc1F (stereo not drawn)
135 to 136 °C	COC(=O)C1=C(C)NC(c2ncccc2F)=NC1c1cc([N+](=O)[O-])c(Cl)cc1F (stereo not drawn)
131 to 132 °C	COC(=O)C1=C(C)NC(c2ncccc2Cl)=NC1c1ccccc1Br (stereo not drawn)
174 to 175 °C	COC(=O)C1=C(C)NC(c2ncccc2F)=NC1c1cccc2ncc(-c3ccccc3)cc12 (stereo not drawn)
167 to 169 °C	CCOC(=O)C1=C(C)NC(c2ncccc2F)=NC1c1ccc(F)cc1C (stereo not drawn)
132 °C	COC(=O)C1=C(C)NC(c2cc(OC)ccn2)=NC1c1ccc(F)cc1Cl (stereo not drawn)
133 to 134 °C	CCOC(=O)C1=C(C)NC(c2ncccc2F)=NC1c1ccc(Cl)cc1 (stereo not drawn)
124 to 126 °C	C=CCOC(=O)C1=C(C)NC(c2ncccc2F)=NC1c1ccccc1Cl (stereo not drawn)
126 to 127 °C	CCOC(=O)C1=C(C)NC(c2ncccc2Cl)=NC1c1ccc(Br)cc1F (stereo not drawn)
121 to 123 °C	COC(=O)C1=C(C)NC(c2ncccc2F)=NC1c1ccc(F)cc1Cl (stereo not drawn)
95 to 96 °C	COC(=O)C1=C(C)NC(c2ncccc2Cl)=NC1c1ccc(F)cc1Cl (stereo not drawn)
210 to 212 °C	COC(=O)C1=C(C)NC(c2ncccc2F)=NC1c1ccccc1Cl.Cl (stereo not drawn)
127 to 129 °C	COC(=O)C1=C(C)NC(c2ncccc2F)=NC1c1ccc(F)cc1 (stereo not drawn)
139 to 140 °C	COC(=O)C1=C(C)NC(c2ncccc2F)=NC1c1ccc(Cl)cc1 (stereo not drawn)
163 to 165 °C	COC(=O)C1=C(C)NC(c2ccc(Cl)cn2)=NC1c1ccccc1Cl (stereo not drawn)
165 to 167 °C	COC(=O)C1=C(C)NC(c2ncccc2F)=NC1c1ccccc1C(F)(F)F (stereo not drawn)
